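Five compound concentrations were applied to cells in 96-well plates for 48 hours; endpoints were derived by simple linear interpolation of the resulting dose-response curve. Here, GI50 denotes the concentration required for 50% inhibition of growth.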 Calls of active or inactive are those of the source. No stated cut-off is given here; in the data, active = GI50 up to about 1.1 µM and inactive = higher.
Columns and labels:
Test in all cases: inhibition of tumour cell growth, NCI panel, 48 h
A498 = system: A498
A549 = system: A549
ACHN = system: ACHN
BT-549 = system: BT-549
CAKI-1 = system: CAKI-1
CCRF-CEM = system: CCRF-CEM
COLO 205 = system: COLO 205
DLD-1 = system: DLD-1
DMS-114 = system: DMS-114
DMS-273 = system: DMS-273
DU-145 = system: DU-145
EKVX = system: EKVX
HCC 2998 = system: HCC 2998
HCT-116 = system: HCT-116
HCT-15 = system: HCT-15
HL-60 = system: HL-60
HOP-18 = system: HOP-18
HOP-92 = system: HOP-92
HT-29 = system: HT-29
Hs-578T = system: Hs-578T
IGROV-1 = system: IGROV-1
K562 = system: K562
KM-20L2 = system: KM-20L2
KM12 = system: KM12
LOX IMVI = system: LOX IMVI
LXFL 529 = system: LXFL 529
M14 = system: M14
M19-MEL = system: M19-MEL
MCF7 = system: MCF7
MDA-MB-231 = system: MDA-MB-231
MDA-MB-435 = system: MDA-MB-435
MOLT-4 = system: MOLT-4
Malme-3M = system: Malme-3M
NCI-H226 = system: NCI-H226
NCI-H23 = system: NCI-H23
NCI-H460 = system: NCI-H460
NCI-H522 = system: NCI-H522
NCI/ADR-RES = system: NCI/ADR-RES
OVCAR-3 = system: OVCAR-3
OVCAR-4 = system: OVCAR-4
OVCAR-8 = system: OVCAR-8
PC-3 = system: PC-3
RPMI-8226 = system: RPMI-8226
RXF 393 = system: RXF 393
SF-268 = system: SF-268
SF-295 = system: SF-295
SF-539 = system: SF-539
SK-MEL-28 = system: SK-MEL-28
SK-MEL-2 = system: SK-MEL-2
SK-MEL-5 = system: SK-MEL-5
SK-OV-3 = system: SK-OV-3
SN12C = system: SN12C
SNB-19 = system: SNB-19
SNB-75 = system: SNB-75
SNB-78 = system: SNB-78
SR = system: SR
SW-620 = system: SW-620
T47D = system: T47D
TK-10 = system: TK-10
U-251 = system: U-251
UACC-257 = system: UACC-257
UACC-62 = system: UACC-62
UO-31 = system: UO-31
786-0 = system: 786-0
HOP-62 = system: HOP-62
OVCAR-5 = system: OVCAR-5

Structure (SMILES): C/C(=N\NC(=S)N1CCN(C2CCCCCC2)CC1)c1ccccn1
- GI50 (A498): 1490 nM (inactive)
- GI50 (A549): < 37.9 nM (active)
- GI50 (ACHN): 145 nM (active)
- GI50 (BT-549): 1270 nM (inactive)
- GI50 (CAKI-1): 37 nM (active)
- GI50 (CCRF-CEM): 10 nM (active)
- GI50 (COLO 205): 10 nM (active)
- GI50 (DLD-1): 10 nM (active)
- GI50 (DMS-114): 10 nM (active)
- GI50 (DMS-273): 10 nM (active)
- GI50 (DU-145): 1020 nM (active)
- GI50 (EKVX): < 12.1 nM (active)
- GI50 (HCC 2998): < 48.5 nM (active)
- GI50 (HCT-116): 10 nM (active)
- GI50 (HCT-15): 10 nM
- GI50 (HL-60): 10 nM (active)
- GI50 (HOP-18): 2060 nM (inactive)
- GI50 (HOP-92): 47.3 nM (active)
- GI50 (HT-29): < 34.3 nM (active)
- GI50 (Hs-578T): 1490 nM (inactive)
- GI50 (IGROV-1): 10 nM (active)
- GI50 (K562): 10 nM (active)
- GI50 (KM-20L2): 10 nM (active)
- GI50 (KM12): 19.7 nM (active)
- GI50 (LOX IMVI): 10 nM (active)
- GI50 (LXFL 529): 1 nM (active)
- GI50 (M14): 10 nM (active)
- GI50 (M19-MEL): 340 nM (active)
- GI50 (MCF7): 10 nM (active)
- GI50 (MDA-MB-231): 1310 nM (inactive)
- GI50 (MDA-MB-435): 161 nM (active)
- GI50 (MOLT-4): 10 nM (active)
- GI50 (Malme-3M): 105 nM (active)
- GI50 (NCI-H226): 65.5 nM (active)
- GI50 (NCI-H23): 10 nM (active)
- GI50 (NCI-H460): 10 nM (active)
- GI50 (NCI-H522): < 25.3 nM (active)
- GI50 (NCI/ADR-RES): 10 nM (active)
- GI50 (OVCAR-3): 10 nM (active)
- GI50 (OVCAR-4): 41 nM (active)
- GI50 (OVCAR-8): 10 nM (active)
- GI50 (PC-3): 10 nM (active)
- GI50 (RPMI-8226): 10 nM (active)
- GI50 (RXF 393): 212 nM (active)
- GI50 (SF-268): 337 nM (active)
- GI50 (SF-295): < 47.6 nM (active)
- GI50 (SF-539): 92.7 nM (active)
- GI50 (SK-MEL-28): 238 nM (active)
- GI50 (SK-MEL-2): 481 nM (active)
- GI50 (SK-MEL-5): 24.9 nM (active)
- GI50 (SK-OV-3): 56.5 nM (active)
- GI50 (SN12C): 111 nM (active)
- GI50 (SNB-19): 1710 nM (inactive)
- GI50 (SNB-75): 1710 nM (inactive)
- GI50 (SNB-78): 2780 nM (inactive)
- GI50 (SR): 10 nM (active)
- GI50 (SW-620): 10 nM (active)
- GI50 (T47D): 10 nM (active)
- GI50 (TK-10): 740 nM (active)
- GI50 (U-251): < 11.7 nM (active)
- GI50 (UACC-257): 10 nM (active)
- GI50 (UACC-62): < 12 nM (active)
- GI50 (UO-31): 100 nM (active)

Structure (SMILES): C[C@@H]1C2=CC[C@@]3(C)C(CCC3[C@H](C)[C@H]3C[C@@]4(C)O[C@@](c5cccnc5)(O3)OC4(C)C)[C@@H]2C2OC2[C@@]12CCC(=O)O2 (stereo not given in full)
- GI50 (786-0): 38200 nM (inactive)
- GI50 (A498): > 100000 nM (inactive)
- GI50 (A549): 67800 nM (inactive)
- GI50 (ACHN): 46500 nM (inactive)
- GI50 (CAKI-1): 27600 nM (inactive)
- GI50 (CCRF-CEM): 31000 nM (inactive)
- GI50 (COLO 205): 30000 nM (inactive)
- GI50 (DLD-1): 49100 nM (inactive)
- GI50 (DMS-114): 33000 nM (inactive)
- GI50 (DMS-273): 37500 nM (inactive)
- GI50 (HCC 2998): 37000 nM (inactive)
- GI50 (HCT-116): 40800 nM (inactive)
- GI50 (HCT-15): 32100 nM
- GI50 (HL-60): 17000 nM (inactive)
- GI50 (HOP-18): 20500 nM (inactive)
- GI50 (HOP-62): 66700 nM (inactive)
- GI50 (HOP-92): 26800 nM (inactive)
- GI50 (HT-29): 34600 nM (inactive)
- GI50 (IGROV-1): 76600 nM (inactive)
- GI50 (K562): 27500 nM (inactive)
- GI50 (KM-20L2): 31800 nM (inactive)
- GI50 (KM12): 38800 nM (inactive)
- GI50 (LOX IMVI): 31500 nM (inactive)
- GI50 (LXFL 529): 35500 nM (inactive)
- GI50 (M14): 26100 nM (inactive)
- GI50 (M19-MEL): 41200 nM (inactive)
- GI50 (Malme-3M): 37400 nM (inactive)
- GI50 (NCI-H23): 34200 nM (inactive)
- GI50 (NCI-H460): 32000 nM (inactive)
- GI50 (NCI-H522): 29300 nM (inactive)
- GI50 (OVCAR-3): 24100 nM (inactive)
- GI50 (OVCAR-5): 57400 nM (inactive)
- GI50 (OVCAR-8): 32400 nM (inactive)
- GI50 (RPMI-8226): 29200 nM (inactive)
- GI50 (SF-268): > 100000 nM (inactive)
- GI50 (SF-295): 31200 nM (inactive)
- GI50 (SF-539): 52200 nM (inactive)
- GI50 (SK-MEL-28): 90800 nM (inactive)
- GI50 (SK-MEL-2): 25200 nM (inactive)
- GI50 (SK-MEL-5): 33000 nM (inactive)
- GI50 (SK-OV-3): 39900 nM (inactive)
- GI50 (SN12C): 33000 nM (inactive)
- GI50 (SNB-19): 49100 nM (inactive)
- GI50 (SNB-75): 34000 nM (inactive)
- GI50 (SNB-78): 85100 nM (inactive)
- GI50 (SR): 9400 nM (inactive)
- GI50 (SW-620): 37700 nM (inactive)
- GI50 (TK-10): 44800 nM (inactive)
- GI50 (U-251): 35600 nM (inactive)
- GI50 (UACC-257): 44000 nM (inactive)
- GI50 (UACC-62): 30300 nM (inactive)
- GI50 (UO-31): 34400 nM (inactive)
